Active and inactive are the calls of the source.
How the values were obtained:
[1] = growth suppression of beta-catenin-knockout colon cells, dose response, cell-based, HCT116, human colon tumor (AID 1045); assay type: functional;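 also: HCT116 colon tumor cells with beta catenin knocked out; cells exposed to compound for 60 hours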
[2] = growth suppression of PTEN-null colon cells, dose response, cell-based, HCT116 PTEN knockout (AID 1047); assay type: functional;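 also: HCT116 colon tumor cells with PTEN knocked out; cells exposed to compound for 60 hours before readout; potency for loss of cell viability measured by luminescence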
[3] = target: Beta-2 adrenergic receptor (Homo sapiens, UniProt P07550); assay: beta2AR agonists driving receptor internalization, dose response, cell-based, FAP fluorogen, flow cytometry, cherry pick 1 (AID 588763); assay type: functional
Chain of Beta-2 adrenergic receptor (P07550 whole entry): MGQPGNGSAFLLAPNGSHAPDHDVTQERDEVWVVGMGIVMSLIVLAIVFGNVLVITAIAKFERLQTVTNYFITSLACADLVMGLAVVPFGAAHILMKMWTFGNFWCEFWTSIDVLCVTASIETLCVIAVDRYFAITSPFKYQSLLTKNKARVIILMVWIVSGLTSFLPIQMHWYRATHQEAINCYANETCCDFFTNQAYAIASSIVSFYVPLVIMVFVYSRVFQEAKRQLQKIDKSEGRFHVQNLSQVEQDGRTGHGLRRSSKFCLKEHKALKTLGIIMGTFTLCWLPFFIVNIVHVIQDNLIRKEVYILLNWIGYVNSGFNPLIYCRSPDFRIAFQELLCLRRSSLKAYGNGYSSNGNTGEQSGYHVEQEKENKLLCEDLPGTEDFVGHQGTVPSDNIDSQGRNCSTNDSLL

[4] = target: G-protein coupled receptor 55 (Homo sapiens, UniProt Q9Y2T6); assay: GPR55 agonists via beta-arrestin recruitment, primary screen, imaging, U2OS cells, beta-arrestin-GFP redistribution (AID 1961); assay type: functional
[5] = growth induction of Burl-1 ts yeast mutant, dose response, counter-screen for SUMOylation pathway inhibitor project, whole organism, S. cerevisiae, luminescence (AID 463199); assay type: functional
CAAX prenyl protease 2 = CAAX prenyl protease 2 (Homo sapiens, UniProt Q9Y256); assay: human Rce1 protease inhibitors, dose response, biochemical, yeast membranes, quenched-peptide fluorescence, cherry-pick (AID 588849)
Chain of CAAX prenyl protease 2 (Q9Y256 whole entry): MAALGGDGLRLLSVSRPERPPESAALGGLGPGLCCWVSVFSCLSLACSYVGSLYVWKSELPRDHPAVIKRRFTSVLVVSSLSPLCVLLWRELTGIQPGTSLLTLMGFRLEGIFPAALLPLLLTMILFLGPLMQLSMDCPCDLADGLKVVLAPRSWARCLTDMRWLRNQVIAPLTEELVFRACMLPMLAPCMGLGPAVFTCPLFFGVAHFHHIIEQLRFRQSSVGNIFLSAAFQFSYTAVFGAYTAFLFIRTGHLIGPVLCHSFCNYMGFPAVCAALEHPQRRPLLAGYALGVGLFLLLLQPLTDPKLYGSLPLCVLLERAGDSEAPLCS

[6] = cytotoxicity toward NIH3T3 fibroblasts, dose response, counter-screen, cell-based, ATP luminescence, mouse fibroblasts (AID 2010); assay type: functional;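 also: cells exposed to compound for about 90 hours before reading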
[7] = Luminescence Cell-Based Dose Retest to Confirm Inhibitors of Cancer Stem Cells. [Related pubchem assays (depositor defined):AID2717, AID2721]; assay type: functional; conditions: Homo sapiens
[8] = inhibitors of intracellular T. cruzi replication, confirmation, NIH3T3 host cells, beta-gal luminescence (AID 2044); assay type: functional, cell-based;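 also: intracellular parasites grown in NIH/3T3 mouse fibroblasts as host cells; luminescent beta-galactosidase reporter signal from transgenic T. cruzi replicating inside host cells; inhibitors lower the luminescence signal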
[9] = target: Voltage-dependent T-type calcium channel subunit alpha-1H (Homo sapiens, UniProt O95180); assay type: functional;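 also: channel activity triggered by adding a high calcium stimulation buffer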
HEK293 [10] = assay: cells; conditions: Homo sapiens
HEK293 [11] = assay: cells; conditions: Homo sapiens; remark: listed apart in the source
[12] = HEp-2 cell cytotoxicity, dose response, cytotoxicity control for RSV inhibitor project, HTS (AID 2410); assay type: functional; conditions: human respiratory syncytial virus
A-375 [13] = assay: MITF: Counter assay: A375 proliferation Measured in Cell-Based System Using Plate Reader - 2084-03_Inhibitor_Dose_DryPowder_Activity. [Related pubchem assays (depositor defined):AID488944]; assay type: functional; conditions: Homo sapiens
A-375 [14] = assay: A375 melanoma cell viability reduction, dose response, counter-screen for MITF modulator project, cherry-pick samples, set 2 (AID 540335); assay type: functional, cell-based; conditions: Homo sapiens
Streptococcus = assay: Group A Streptococcus viability loss, dose response, counter-screen for streptokinase expression inhibitor project, luminescence, BacTiterGlo (AID 1915); assay type: functional, organism-based;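 also: potency for reduction of bacterial viability or growth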
[15] = cytotoxicity in MIN6 insulinoma cells, dose response, cytotoxicity control, cell-based, mouse insulinoma (AID 2122); assay type: functional;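 also: confirmatory high-throughput counterscreen run to flag cytotoxic compounds; mouse MIN-6 beta cells carrying an insulin promoter eGFP reporter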
[16] = target: Voltage-gated inwardly rectifying potassium channel KCNH2 (Homo sapiens, UniProt Q12809); assay: hERG protection from proarrhythmic block, potency, dose response, cell-based, thallium flux (AID 2121); assay type: ADME
HEK293 [17] = assay: inhibitors of LMP1-driven NF-kB reporter, dose response, cell-based, HEK293, luciferase, cherry-pick (AID 588343); assay type: functional; conditions: Homo sapiens
[18] = tested on: Streptococcus sp. 'group A'; assay: growth inhibition of control SK(-) GAS strain, dose response, counter-screen for streptokinase expression inhibitor project, luminescence, kanamycin, BacTiterGlo, confirmation (AID 1900); assay type: functional, organism-based
[19] = insulin promoter down-regulators in MIN6 cells, imaging, high-content screening, mouse beta cells (AID 1628); assay type: functional
Streptokinase A = target: T1, Streptokinase A (Streptococcus pyogenes serotype M1, UniProt P10520); assay: S. pyogenes streptokinase expression inhibitors, potency, dose response, plasminogen activation absorbance, OD405 (AID 1914); assay type: functional, Streptococcus pyogenes M1 GAS;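 also: secreted streptokinase activity via plasminogen activation per viability signal from cell pellet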
T1 sequence (P10520 whole entry): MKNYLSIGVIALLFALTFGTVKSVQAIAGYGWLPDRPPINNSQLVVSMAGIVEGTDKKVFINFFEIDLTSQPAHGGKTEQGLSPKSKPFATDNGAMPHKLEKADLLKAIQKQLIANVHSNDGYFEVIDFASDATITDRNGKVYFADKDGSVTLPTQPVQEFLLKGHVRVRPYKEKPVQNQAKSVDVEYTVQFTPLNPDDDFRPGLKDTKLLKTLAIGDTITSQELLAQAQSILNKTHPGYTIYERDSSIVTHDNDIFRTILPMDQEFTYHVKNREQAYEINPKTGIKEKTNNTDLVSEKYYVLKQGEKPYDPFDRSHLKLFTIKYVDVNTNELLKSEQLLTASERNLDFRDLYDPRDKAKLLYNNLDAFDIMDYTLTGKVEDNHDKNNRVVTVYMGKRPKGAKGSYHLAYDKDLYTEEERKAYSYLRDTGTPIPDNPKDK

[20] = target: ATP-dependent molecular chaperone HSP82 (Candida albicans (strain WO-1) (Yeast), UniProt C4YTQ8); assay: loss of DOC-induced GRE-beta-galactosidase reporter signal, dose response, Hsp90 inhibitor project, S. cerevisiae, luminescence (AID 2400); assay type: functional, cell-based;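 also: beta-galactosidase luminescence from glucocorticoid response element reporter as proxy for Hsp90 function; inhibitor potency where signal loss means Hsp90 inhibition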
Chain of ATP-dependent molecular chaperone HSP82 (C4YTQ8 whole entry): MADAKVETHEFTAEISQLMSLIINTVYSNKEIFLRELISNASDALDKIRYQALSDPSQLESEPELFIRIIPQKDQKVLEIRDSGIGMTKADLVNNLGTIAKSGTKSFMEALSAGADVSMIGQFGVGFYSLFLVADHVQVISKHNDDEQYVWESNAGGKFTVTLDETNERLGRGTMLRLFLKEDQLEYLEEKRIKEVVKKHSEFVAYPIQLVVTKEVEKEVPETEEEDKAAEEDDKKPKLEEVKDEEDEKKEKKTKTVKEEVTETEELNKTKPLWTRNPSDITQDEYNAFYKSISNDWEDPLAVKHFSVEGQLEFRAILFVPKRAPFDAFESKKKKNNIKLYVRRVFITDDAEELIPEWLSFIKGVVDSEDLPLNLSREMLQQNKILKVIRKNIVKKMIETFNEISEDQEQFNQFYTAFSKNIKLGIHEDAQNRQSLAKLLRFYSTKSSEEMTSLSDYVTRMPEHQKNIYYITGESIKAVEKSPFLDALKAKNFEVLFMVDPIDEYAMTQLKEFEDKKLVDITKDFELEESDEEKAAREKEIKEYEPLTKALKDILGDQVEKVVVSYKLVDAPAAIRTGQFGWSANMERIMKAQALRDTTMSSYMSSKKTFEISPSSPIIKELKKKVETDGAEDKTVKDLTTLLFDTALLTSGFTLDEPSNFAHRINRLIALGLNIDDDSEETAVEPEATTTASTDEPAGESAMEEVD

[21] = target: Serine/threonine-protein phosphatase (Candida dubliniensis (strain CD36 / CBS 7987 / NCPF 3949 / NRRLY-17841) (Yeast), UniProt B9W6M3); assay: calcineurin pathway inhibitors in yeast reporter, dose response, S. cerevisiae, CDRE-lacZ, luminescence, secondary (AID 2388); assay type: functional, cell-based;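 also: yeast reporter cells carrying a calcineurin-responsive lacZ construct stimulated with calcium chloride; luminescent beta-galactosidase reporter signal in whole cells rather than isolated phosphatase activity; potency for inhibition where a drop in reporter signal means calcineurin blockade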
Chain of Serine/threonine-protein phosphatase (B9W6M3 whole entry): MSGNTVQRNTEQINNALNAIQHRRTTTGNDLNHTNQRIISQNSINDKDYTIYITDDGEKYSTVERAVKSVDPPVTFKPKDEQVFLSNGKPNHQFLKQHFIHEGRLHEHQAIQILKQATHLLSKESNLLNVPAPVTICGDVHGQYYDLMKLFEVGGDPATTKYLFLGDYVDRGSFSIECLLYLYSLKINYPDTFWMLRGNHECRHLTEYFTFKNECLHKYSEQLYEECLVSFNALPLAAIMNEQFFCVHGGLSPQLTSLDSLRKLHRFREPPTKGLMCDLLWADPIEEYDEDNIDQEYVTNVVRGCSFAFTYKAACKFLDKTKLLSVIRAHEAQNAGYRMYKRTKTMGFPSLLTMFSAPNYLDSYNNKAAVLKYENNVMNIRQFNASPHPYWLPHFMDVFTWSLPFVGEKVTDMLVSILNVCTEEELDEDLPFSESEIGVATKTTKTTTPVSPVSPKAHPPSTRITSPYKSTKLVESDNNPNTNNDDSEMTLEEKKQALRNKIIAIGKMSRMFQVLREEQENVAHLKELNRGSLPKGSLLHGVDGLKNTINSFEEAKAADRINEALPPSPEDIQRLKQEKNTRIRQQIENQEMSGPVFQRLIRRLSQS

[22] = NIH-3T3 fibroblast cytotoxicity, dose response, cytotoxicity control, cell-based, fluorescence, Alamar Blue, secondary assay (AID 2327); assay type: functional;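 also: NIH-3T3 mouse fibroblasts cultured with fluconazole at 8 µg/mL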
[23] = C. albicans growth with fluconazole, confirmation, fluorescence, retest (AID 2467); assay type: functional, cell-based
[24] = target: T2, Calpain-2 catalytic subunit (Sus scrofa, UniProt P43367); assay: pig calpain II inhibitor potency, dose response, biochemical, fluorogenic peptide substrate (AID 1420); assay type: functional
T2 sequence (P43367 whole entry): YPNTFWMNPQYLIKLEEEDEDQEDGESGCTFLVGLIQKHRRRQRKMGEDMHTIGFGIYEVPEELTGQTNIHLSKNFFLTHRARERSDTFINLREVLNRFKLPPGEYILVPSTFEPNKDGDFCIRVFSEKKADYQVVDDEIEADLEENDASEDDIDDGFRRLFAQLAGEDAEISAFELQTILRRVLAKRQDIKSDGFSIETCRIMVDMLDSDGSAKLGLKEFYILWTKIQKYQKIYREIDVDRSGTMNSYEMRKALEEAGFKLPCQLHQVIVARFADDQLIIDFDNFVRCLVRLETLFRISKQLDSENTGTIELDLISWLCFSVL

[25] = target: Delta-type opioid receptor (Homo sapiens, UniProt P41143); assay: Counterscreen for agonists of heterodimerization of the mu 1 (OPRM1) and delta 1 (OPRD1) opioid receptors: Luminescence-based cell-based high throughput dose response assay to identify agonists of OPRD1 homodimerization. [Related pubchem assays (depositor defined):AID504326, AID504355, AID504692, AID504904, AID504905]; assay type: functional
Chain of Delta-type opioid receptor (P41143 whole entry): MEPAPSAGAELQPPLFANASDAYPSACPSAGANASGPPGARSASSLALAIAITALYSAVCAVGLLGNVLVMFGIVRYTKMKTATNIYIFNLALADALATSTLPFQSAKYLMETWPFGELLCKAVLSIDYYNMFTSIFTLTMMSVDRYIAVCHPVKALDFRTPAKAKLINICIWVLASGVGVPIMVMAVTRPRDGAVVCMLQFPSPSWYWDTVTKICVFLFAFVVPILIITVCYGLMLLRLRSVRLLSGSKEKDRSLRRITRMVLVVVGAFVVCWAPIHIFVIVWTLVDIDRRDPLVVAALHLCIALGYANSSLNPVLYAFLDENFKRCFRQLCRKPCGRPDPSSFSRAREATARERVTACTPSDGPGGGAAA

Mu-type opioid receptor = Mu-type opioid receptor (Homo sapiens, UniProt P35372); assay: Counterscreen for agonists of heterodimerization of the mu 1 (OPRM1) and delta 1 (OPRD1) opioid receptors: Luminescence-based cell-based high throughput dose response assay to identify agonists of OPRM1 homodimerization.; assay type: functional;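 also: U2OS cells expressing OPRM1 and beta-arrestin as split beta-galactosidase partners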
[26] = target: T3, Microphthalmia-associated transcription factor (Homo sapiens, UniProt O75030); assay: TRPM1 promoter luciferase signal decrease, dose response, MITF inhibitor project, cell-based, SK-MEL-5, cherry-picked, set 3 (AID 493073); assay type: functional
T3 sequence (O75030 whole entry): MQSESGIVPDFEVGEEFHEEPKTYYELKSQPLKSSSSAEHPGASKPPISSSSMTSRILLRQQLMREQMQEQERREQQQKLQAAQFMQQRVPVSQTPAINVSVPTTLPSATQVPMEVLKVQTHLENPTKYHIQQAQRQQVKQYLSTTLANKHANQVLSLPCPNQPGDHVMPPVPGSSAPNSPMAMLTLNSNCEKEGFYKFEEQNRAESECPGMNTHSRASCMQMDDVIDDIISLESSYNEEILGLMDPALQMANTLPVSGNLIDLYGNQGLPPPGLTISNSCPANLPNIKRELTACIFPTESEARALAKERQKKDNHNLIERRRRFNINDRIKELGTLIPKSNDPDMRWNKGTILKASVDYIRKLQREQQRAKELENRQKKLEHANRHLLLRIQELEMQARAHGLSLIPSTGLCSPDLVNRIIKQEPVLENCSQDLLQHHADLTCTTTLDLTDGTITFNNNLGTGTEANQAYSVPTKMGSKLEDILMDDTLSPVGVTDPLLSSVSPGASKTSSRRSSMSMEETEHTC

[27] = target: 5-hydroxytryptamine receptor 5A (Homo sapiens, UniProt P47898); assay: Counterscreen for agonists of OPRM1-OPRD1 heterodimerization: luminescence-based cell-based high throughput dose response assay to identify agonists of 5-hydroxytryptamine (serotonin) 5A receptor (HTR5A). [Related pubchem assays (depositor defined):AID504326, AID504355, AID504692, AID504904, AID504905]; assay type: functional
Chain of 5-hydroxytryptamine receptor 5A (P47898 whole entry): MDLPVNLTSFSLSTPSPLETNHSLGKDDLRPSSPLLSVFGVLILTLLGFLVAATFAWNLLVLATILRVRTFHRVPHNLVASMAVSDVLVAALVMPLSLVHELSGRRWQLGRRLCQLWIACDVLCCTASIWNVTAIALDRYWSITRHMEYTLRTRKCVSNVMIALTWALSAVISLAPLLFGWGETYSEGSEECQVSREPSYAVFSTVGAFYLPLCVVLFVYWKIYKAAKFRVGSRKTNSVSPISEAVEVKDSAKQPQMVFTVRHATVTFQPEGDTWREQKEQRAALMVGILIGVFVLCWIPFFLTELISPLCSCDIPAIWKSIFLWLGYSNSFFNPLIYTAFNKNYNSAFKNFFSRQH

[28] = Luminescence Cell-Based Dose Response Follow up to Identify Inhibitors of Platelet Dense Granule Release. [Related pubchem assays (depositor defined):AID1663, AID1678, AID2398]; assay type: functional
Phospholipase D1 = Phospholipase D1 (Homo sapiens, UniProt Q13393); assay: PLD1 inhibitor potency in cells, dose response (AID 602151); assay type: functional;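 also: cellular PLD1 assay in Calu-1 cells stimulated with PMA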
Chain of Phospholipase D1 (Q13393 whole entry): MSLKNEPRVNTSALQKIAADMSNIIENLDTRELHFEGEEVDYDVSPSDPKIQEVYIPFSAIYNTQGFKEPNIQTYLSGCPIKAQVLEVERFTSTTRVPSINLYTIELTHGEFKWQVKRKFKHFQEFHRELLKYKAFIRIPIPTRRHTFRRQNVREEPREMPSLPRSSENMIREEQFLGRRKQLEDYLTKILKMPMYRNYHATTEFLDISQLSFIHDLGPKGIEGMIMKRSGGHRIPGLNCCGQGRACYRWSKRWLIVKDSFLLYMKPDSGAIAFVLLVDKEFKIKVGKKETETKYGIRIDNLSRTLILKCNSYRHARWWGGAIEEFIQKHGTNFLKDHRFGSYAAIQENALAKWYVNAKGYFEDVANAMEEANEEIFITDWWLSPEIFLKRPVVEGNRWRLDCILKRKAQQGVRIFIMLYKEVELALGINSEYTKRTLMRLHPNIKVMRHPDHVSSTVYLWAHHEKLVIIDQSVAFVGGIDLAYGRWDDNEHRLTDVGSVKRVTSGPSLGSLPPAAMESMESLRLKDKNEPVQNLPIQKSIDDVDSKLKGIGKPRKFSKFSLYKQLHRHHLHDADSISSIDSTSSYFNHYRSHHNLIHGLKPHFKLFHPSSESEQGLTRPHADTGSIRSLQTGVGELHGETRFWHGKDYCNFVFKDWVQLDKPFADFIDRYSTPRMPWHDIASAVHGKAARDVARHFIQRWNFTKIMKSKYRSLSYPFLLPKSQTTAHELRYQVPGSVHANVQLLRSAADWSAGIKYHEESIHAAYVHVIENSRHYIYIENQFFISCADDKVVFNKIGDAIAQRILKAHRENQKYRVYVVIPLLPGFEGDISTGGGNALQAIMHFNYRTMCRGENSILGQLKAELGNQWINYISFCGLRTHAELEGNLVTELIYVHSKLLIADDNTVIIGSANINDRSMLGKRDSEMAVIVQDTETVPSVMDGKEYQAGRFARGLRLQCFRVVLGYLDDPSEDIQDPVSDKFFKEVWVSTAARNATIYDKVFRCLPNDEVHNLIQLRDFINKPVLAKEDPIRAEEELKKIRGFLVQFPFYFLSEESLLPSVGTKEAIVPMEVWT

Phospholipase D2 = Phospholipase D2 (Homo sapiens, UniProt O14939); assay: PLD2 inhibitor potency in cells, dose response (AID 602147); assay type: functional;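 also: cellular assay in HEK293 cells overexpressing GFP-tagged PLD2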
Chain of Phospholipase D2 (O14939 whole entry): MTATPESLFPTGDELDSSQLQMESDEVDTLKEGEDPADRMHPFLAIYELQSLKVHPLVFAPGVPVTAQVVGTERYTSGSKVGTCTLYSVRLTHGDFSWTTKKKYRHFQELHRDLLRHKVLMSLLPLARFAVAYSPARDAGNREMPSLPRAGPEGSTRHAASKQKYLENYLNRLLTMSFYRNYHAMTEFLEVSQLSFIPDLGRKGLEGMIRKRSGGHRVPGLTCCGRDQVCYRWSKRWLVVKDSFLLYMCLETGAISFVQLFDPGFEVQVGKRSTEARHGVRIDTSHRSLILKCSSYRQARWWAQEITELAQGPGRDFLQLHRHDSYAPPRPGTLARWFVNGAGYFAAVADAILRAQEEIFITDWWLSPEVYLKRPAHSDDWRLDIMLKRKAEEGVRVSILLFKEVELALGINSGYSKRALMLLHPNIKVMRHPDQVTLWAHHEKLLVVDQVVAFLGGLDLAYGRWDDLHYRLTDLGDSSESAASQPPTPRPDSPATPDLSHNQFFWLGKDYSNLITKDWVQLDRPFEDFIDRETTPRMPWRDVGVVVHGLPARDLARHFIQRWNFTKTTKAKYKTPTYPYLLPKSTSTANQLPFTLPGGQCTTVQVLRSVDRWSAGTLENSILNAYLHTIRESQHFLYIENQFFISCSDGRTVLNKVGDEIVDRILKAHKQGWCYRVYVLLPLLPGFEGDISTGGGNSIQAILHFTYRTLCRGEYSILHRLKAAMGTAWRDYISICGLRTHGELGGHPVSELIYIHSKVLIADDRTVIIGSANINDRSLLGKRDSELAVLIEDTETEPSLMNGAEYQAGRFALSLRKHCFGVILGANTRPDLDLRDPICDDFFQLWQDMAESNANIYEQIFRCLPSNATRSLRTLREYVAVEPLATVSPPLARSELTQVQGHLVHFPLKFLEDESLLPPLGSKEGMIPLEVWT

Candida albicans = assay: growth inhibition of resistant C. albicans, dose response, CaCi-8, fluconazole, Alamar Blue, dry powder (AID 488807); assay type: functional, organism-based

In the case of `COc1ccc(C2C(C#N)=C(N)Oc3c2sc2nc(C)cc(C)c32)cc1` (centres undefined), the EC50 [1] is reported as 5.01 µM (active), the EC50 [2] is reported as 4.6 µM (active) and the EC50 [3] is reported as 9.58 µM (inactive). For the same molecule, the EC50 [4] was 3.41 µM (active).

For `O=C(O)/C=C\C(=O)NC1CCCCC1`, the AC50 [5] was 54.1 µM (active).

In the case of `CCOC(=O)C1CCCN(S(=O)(=O)c2cc3nc(O)c(O)nc3cc2C)C1` (centres undefined), the AC50 (CAAX prenyl protease 2) is reported as 21.8 µM (active).

In the case of `CCN(CC)S(=O)(=O)c1ccc2c(c1)C(=NO)c1cc(S(=O)(=O)N(CC)CC)ccc1-2`, the EC50 [6] is reported as < 6 µM (inconclusive), the EC50 [1] is reported as 7.08 µM (active) and the AC50 [7] is reported as 0.742 µM (active). For the same molecule, the EC50 [2] was 6.41 µM (active), the EC50 [8] was 0.84 µM (active) and the EC50 [9] was 1.6 µM (active). For the same molecule, the EC50 (HEK293 [10]) was > 59.6 µM (inactive), the IC50 (cells) was 5.19 µM (active) and the EC50 (HEK293 [11]) was > 59.6 µM (inactive). The CC50 [12] was 9.81 µM (active).

For `CCOc1ccccc1-c1nc(-c2ccc(C)nc2OC)no1`, the AC50 (A-375 [13]) was > 35 µM (active) and the AC50 (A-375 [14]) was > 35 µM (active).

In the case of `Oc1c(N=NC(S)=Nc2ccccc2F)c2ccccc2n1Cc1ccccc1`, the EC50 (Streptococcus) is reported as 6.93 µM (active), the IC50 [15] is reported as 10.1 µM (inactive) and the EC50 [16] is reported as 0.89 µM (active). For the same molecule, the AC50 (HEK293 [17]) was 3.07 µM (active), the EC50 [18] was 0.562 µM (active) and the IC50 [19] was 6.95 µM (active). The EC50 (Streptokinase A) was > 150 µM (not active).

With `CCOc1ccc(NC(S)=NNC(=O)c2ccc(Br)cc2)cc1` the EC50 [20] was > 160 µM (inactive), the EC50 [21] was > 180 µM (inactive) and the EC50 [22] was > 160 µM (inactive). For the same molecule, the EC50 [23] was 0.688 µM (active) and the IC50 [24] was > 50 µM (not active).

In the case of `Cc1ccc(NC(=O)c2ncn(CCCN[C@H](C)c3cccc4ccccc34)n2)cc1C`, the EC50 [25] is reported as > 92.4 µM (inactive), the EC50 (Mu-type opioid receptor) is reported as > 10.3 µM (inactive) and the AC50 (A-375 [13]) is reported as 25.8 µM (active). The AC50 [26] was 22.7 µM (active) and the EC50 [27] was > 92.4 µM (inactive).

With `CC(=O)Nc1c(C#N)c(-c2ccccc2)c(C#N)c(=O)n1-c1ccc(C)cc1` the EC50 [28] was 129 µM (active).

In the case of `C[C@@H](CN1CCC(n2c(=O)[nH]c3cc(F)ccc32)CC1)NC(=O)c1ccc(F)c(F)c1`, the IC50 (Phospholipase D1) is reported as 0.012 µM (active) and the IC50 (Phospholipase D2) is reported as 0.84 µM (active).

In the case of `COC(=O)Cn1nc(-c2ccc(C)cc2)c2ccccc21`, the AC50 (Candida albicans) is reported as 1.45 µM (active).

Source: ChEMBL document CHEMBL1201862, “PubChem BioAssay data set” (2004)
